Target: T1, Cytochrome P450 2C9 (Homo sapiens, UniProt P11712)
Test: Inhibition of CYP2C9 (unknown origin) compound preincubated with substrate
Assay type: ADME
Settings: not given

T1 sequence (P11712 whole entry): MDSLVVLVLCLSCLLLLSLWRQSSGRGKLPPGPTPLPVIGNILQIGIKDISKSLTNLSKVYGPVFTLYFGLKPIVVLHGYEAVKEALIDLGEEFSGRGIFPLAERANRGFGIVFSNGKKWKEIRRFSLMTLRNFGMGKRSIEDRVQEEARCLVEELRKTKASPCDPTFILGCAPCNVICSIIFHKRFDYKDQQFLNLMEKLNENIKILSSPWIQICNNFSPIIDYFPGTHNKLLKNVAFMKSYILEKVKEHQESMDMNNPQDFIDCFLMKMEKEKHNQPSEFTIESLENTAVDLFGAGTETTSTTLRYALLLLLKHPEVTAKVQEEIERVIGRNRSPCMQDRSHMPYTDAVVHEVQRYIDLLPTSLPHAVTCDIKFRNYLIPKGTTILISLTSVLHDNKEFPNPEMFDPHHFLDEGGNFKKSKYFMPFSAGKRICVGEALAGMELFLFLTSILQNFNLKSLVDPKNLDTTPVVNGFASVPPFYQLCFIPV

IC50 [µM] | Structure (SMILES)
> 30 | COCCOc1ccccc1N1CCN(C(=O)C2(Oc3ccc(C(F)(F)F)cc3)CCCN(C(=O)c3cnccc3C(F)(F)F)C2)CC1.Cl (single isomer, unassigned)

Target: T2, Cytochrome P450 2D6 (Homo sapiens, UniProt P10635)
Test: Inhibition of CYP2D6 (unknown origin) compound preincubated with substrate
Assay type: ADME
Settings: not given

T2 sequence (P10635 whole entry): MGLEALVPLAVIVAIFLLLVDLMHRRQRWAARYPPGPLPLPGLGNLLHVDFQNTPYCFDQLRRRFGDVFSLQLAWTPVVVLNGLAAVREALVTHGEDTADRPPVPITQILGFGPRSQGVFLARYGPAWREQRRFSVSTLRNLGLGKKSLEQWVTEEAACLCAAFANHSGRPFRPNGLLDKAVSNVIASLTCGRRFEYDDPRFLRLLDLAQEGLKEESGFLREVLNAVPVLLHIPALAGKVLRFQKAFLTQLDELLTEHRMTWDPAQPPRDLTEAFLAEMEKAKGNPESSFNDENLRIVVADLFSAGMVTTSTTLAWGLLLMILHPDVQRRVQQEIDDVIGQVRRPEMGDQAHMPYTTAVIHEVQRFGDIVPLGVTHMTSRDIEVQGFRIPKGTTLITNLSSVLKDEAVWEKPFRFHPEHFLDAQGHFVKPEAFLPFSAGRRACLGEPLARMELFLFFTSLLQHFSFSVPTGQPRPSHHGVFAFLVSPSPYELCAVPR

IC50 [µM] | Structure (SMILES)
> 30 | COCCOc1ccccc1N1CCN(C(=O)C2(Oc3ccc(C(F)(F)F)cc3)CCCN(C(=O)c3cnccc3C(F)(F)F)C2)CC1.Cl (single isomer, unassigned)

Target: T1, Cytochrome P450 2C9
Test: Inhibition of CYP2C9 (unknown origin) compound co-incubated with substrate
Assay type: ADME
Settings: not given

IC50 [µM] | Structure (SMILES)
> 30 | COCCOc1ccccc1N1CCN(C(=O)C2(Oc3ccc(C(F)(F)F)cc3)CCCN(C(=O)c3cnccc3C(F)(F)F)C2)CC1.Cl (single isomer, unassigned)

Target: T2, Cytochrome P450 2D6
Test: Inhibition of CYP2D6 (unknown origin) compound co-incubated with substrate
Assay type: ADME
Settings: not given

IC50 [µM] | Structure (SMILES)
> 30 | COCCOc1ccccc1N1CCN(C(=O)C2(Oc3ccc(C(F)(F)F)cc3)CCCN(C(=O)c3cnccc3C(F)(F)F)C2)CC1.Cl (single isomer, unassigned)

Test system: not listed separately
Test: Oral bioavailability in mouse at 20 mg/kg
Assay type: ADME, organism-based
Settings: in vivo

bioavailability [%] | Structure (SMILES)
32 | COCCOc1ccccc1N1CCN(C(=O)C2(Oc3ccc(C(F)(F)F)cc3)CCCN(C(=O)c3cnccc3C(F)(F)F)C2)CC1.Cl (single isomer, unassigned)

Test system: not listed separately
Test: Cmax in mouse at 20 mg/kg, po
Assay type: ADME, organism-based
Set-up: dose 20 mg/kg, route oral
Settings: in vivo

Cmax [nM] | Structure (SMILES)
700 | COCCOc1ccccc1N1CCN(C(=O)C2(Oc3ccc(C(F)(F)F)cc3)CCCN(C(=O)c3cnccc3C(F)(F)F)C2)CC1.Cl (single isomer, unassigned)

Test system: not listed separately
Test: Tmax in mouse at 20 mg/kg, po
Assay type: ADME, organism-based
Set-up: dose 20 mg/kg, route oral
Settings: in vivo

Tmax [h] | Structure (SMILES)
1 | COCCOc1ccccc1N1CCN(C(=O)C2(Oc3ccc(C(F)(F)F)cc3)CCCN(C(=O)c3cnccc3C(F)(F)F)C2)CC1.Cl (single isomer, unassigned)

Test system: not listed separately
Test: AUC (0 to 24 hrs) in mouse at 20 mg/kg, po
Assay type: ADME, organism-based
Set-up: time < 24 hr, dose 20 mg/kg, route oral
Settings: plasma

AUC(0-t) at 24 h [µM·h] | Structure (SMILES)
1.1 | COCCOc1ccccc1N1CCN(C(=O)C2(Oc3ccc(C(F)(F)F)cc3)CCCN(C(=O)c3cnccc3C(F)(F)F)C2)CC1.Cl (single isomer, unassigned)

Test system: not listed separately
Test: AUC (0 to 24 hrs) in mouse at 20 mg/kg, iv
Assay type: ADME, organism-based
Set-up: time < 24 hr, dose 20 mg/kg, route intravenous
Settings: plasma

AUC(0-t) at 24 h [µM·h] | Structure (SMILES)
3.4 | COCCOc1ccccc1N1CCN(C(=O)C2(Oc3ccc(C(F)(F)F)cc3)CCCN(C(=O)c3cnccc3C(F)(F)F)C2)CC1.Cl (single isomer, unassigned)

Target: Tumour suppressor p53/oncoprotein Mdm2 (Homo sapiens, UniProt Q00987)
Sequence (P04637 whole entry): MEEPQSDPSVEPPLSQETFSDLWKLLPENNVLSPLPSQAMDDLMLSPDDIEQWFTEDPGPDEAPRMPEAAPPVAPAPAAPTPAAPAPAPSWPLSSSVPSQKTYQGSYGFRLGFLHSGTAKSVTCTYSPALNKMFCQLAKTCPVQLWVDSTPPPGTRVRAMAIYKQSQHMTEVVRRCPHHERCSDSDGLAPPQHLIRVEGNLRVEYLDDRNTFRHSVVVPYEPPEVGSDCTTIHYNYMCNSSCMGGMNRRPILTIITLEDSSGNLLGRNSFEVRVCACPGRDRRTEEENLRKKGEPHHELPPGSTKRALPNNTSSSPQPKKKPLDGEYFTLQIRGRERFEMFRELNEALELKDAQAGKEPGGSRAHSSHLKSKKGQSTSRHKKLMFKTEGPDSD
Sequence (Q00987 whole entry): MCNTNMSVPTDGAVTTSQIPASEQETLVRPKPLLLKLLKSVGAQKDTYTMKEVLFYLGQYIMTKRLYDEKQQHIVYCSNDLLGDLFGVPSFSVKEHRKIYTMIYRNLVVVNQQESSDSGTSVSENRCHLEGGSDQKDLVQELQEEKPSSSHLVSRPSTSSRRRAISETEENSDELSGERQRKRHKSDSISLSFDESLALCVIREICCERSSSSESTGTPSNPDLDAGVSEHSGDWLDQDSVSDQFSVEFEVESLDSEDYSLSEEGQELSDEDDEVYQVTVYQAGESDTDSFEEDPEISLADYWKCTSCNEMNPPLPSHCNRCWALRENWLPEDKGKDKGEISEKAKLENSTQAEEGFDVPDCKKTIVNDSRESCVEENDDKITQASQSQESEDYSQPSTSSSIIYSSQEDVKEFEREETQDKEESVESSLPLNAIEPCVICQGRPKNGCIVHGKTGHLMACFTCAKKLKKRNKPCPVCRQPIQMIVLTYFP
Test: Inhibition of human MDM2/p53 interaction by fluorescence polarization assay
Assay type: protein assay
Settings: not given

Structure (SMILES) | IC50 [µM]
O=C(NCCc1ccccc1)C1(Oc2ccc(C(F)(F)F)cc2)CCCN(C(=O)C2(c3ccc(Cl)cc3)CC2)C1 (centres undefined) | 1.4
O=C(c1cnccc1C(F)(F)F)N1CCCC(Oc2ccc(C(F)(F)F)cc2)(C(=O)N2CCN(C3CCCCC3)CC2)C1 (centres undefined) | 4.2
CC(=O)N1CCN(C(=O)C2(Oc3ccc(C(F)(F)F)cc3)CCCN(C(=O)c3cnccc3C(F)(F)F)C2)CC1 (centres undefined) | 36
CN1CCN(C(=O)C2(Oc3ccc(C(F)(F)F)cc3)CCCN(C(=O)c3cnccc3C(F)(F)F)C2)CC1 (centres undefined) | 12
O=C(c1cnccc1C(F)(F)F)N1CCCC(Oc2ccc(C(F)(F)F)cc2)(C(=O)N2CC=C(c3ccccc3)CC2)C1 (centres undefined) | 1.4
O=C(c1cnccc1C(F)(F)F)N1CCCC(Oc2ccc(C(F)(F)F)cc2)(C(=O)N2CCC(c3ccccn3)C2)C1 (centres undefined) | 3.7
O=C(c1cnccc1C(F)(F)F)N1CCCC(Oc2ccc(C(F)(F)F)cc2)(C(=O)N2CCc3ccccc3C2)C1 (centres undefined) | 1.4
O=C(c1cnccc1C(F)(F)F)N1CCCC(Oc2ccc(C(F)(F)F)cc2)(C(=O)NCc2ccc(Cl)cc2)C1 (centres undefined) | 1.5
O=C(c1cnccc1C(F)(F)F)N1CCCC(Oc2ccc(C(F)(F)F)cc2)(C(=O)NCCc2ccccc2)C1 (centres undefined) | 3.5
COc1ccc(N2CCN(C(=O)C3(Oc4ccc(C(F)(F)F)cc4)CCCN(C(=O)c4cnccc4C(F)(F)F)C3)CC2)cc1 (centres undefined) | 23
CCC(=O)Nc1ccccc1N1CCN(C(=O)C2(Oc3ccc(C(F)(F)F)cc3)CCCN(C(=O)c3cnccc3C(F)(F)F)C2)CC1 (centres undefined) | 0.37
COCC(=O)Nc1ccccc1N1CCN(C(=O)C2(Oc3ccc(C(F)(F)F)cc3)CCCN(C(=O)c3cnccc3C(F)(F)F)C2)CC1 (centres undefined) | 0.54
CN(C)CC(=O)Nc1ccccc1N1CCN(C(=O)C2(Oc3ccc(C(F)(F)F)cc3)CCCN(C(=O)c3cnccc3C(F)(F)F)C2)CC1 (centres undefined) | 0.67
CN(C)CCC(=O)Nc1ccccc1N1CCN(C(=O)C2(Oc3ccc(C(F)(F)F)cc3)CCCN(C(=O)c3cnccc3C(F)(F)F)C2)CC1 (centres undefined) | 0.59
CN(C)CCCC(=O)Nc1ccccc1N1CCN(C(=O)C2(Oc3ccc(C(F)(F)F)cc3)CCCN(C(=O)c3cnccc3C(F)(F)F)C2)CC1 (centres undefined) | 1.08
Cc1cc(CC(=O)Nc2ccccc2N2CCN(C(=O)C3(Oc4ccc(C(F)(F)F)cc4)CCCN(C(=O)c4cnccc4C(F)(F)F)C3)CC2)on1 (centres undefined) | 0.63
O=C(CC1NC(=O)NC1=O)Nc1ccccc1N1CCN(C(=O)C2(Oc3ccc(C(F)(F)F)cc3)CCCN(C(=O)c3cnccc3C(F)(F)F)C2)CC1 (centres undefined) | 0.27
O=C(N1CCN(c2ccccn2)CC1)C1(Oc2ccc(C(F)(F)F)cc2)CCCN(Cc2ccccc2C(F)(F)F)C1 (centres undefined) | 14
CCCN1CCCC(Oc2ccc(C(F)(F)F)cc2)(C(=O)N2CCN(c3ccccn3)CC2)C1 (centres undefined) | 6.5
CC(C)(C)CCN1CCCC(Oc2ccc(C(F)(F)F)cc2)(C(=O)N2CCN(c3ccccn3)CC2)C1 (centres undefined) | 6.9
O=C(N1CCN(c2ccccn2)CC1)C1(Oc2ccc(C(F)(F)F)cc2)CCCN(CC2CCCCC2)C1 (centres undefined) | 5.1
CC(C)(C)CC(=O)N1CCCC(Oc2ccc(C(F)(F)F)cc2)(C(=O)N2CCN(c3ccccn3)CC2)C1 (centres undefined) | 3
CC(C)(C)C(=O)N1CCCC(Oc2ccc(C(F)(F)F)cc2)(C(=O)N2CCN(c3ccccn3)CC2)C1 (centres undefined) | 22
O=C(N1CCN(c2ccccn2)CC1)C1(Oc2ccc(C(F)(F)F)cc2)CCCN(C(=O)C2(c3ccc(Cl)cc3)CC2)C1 (centres undefined) | 1.9
O=C(N1CCN(c2ccccn2)CC1)C1(Oc2ccc(C(F)(F)F)cc2)CCCN(S(=O)(=O)c2ccccc2)C1 (centres undefined) | 26
O=C(N1CCN(c2ccccn2)CC1)C1(Oc2ccc(C(F)(F)F)cc2)CCCN(S(=O)(=O)c2ccccc2C(F)(F)F)C1 (centres undefined) | 41
O=C(N1CCN(c2ccccn2)CC1)C1(Oc2ccc(C(F)(F)F)cc2)CCCN(S(=O)(=O)c2ccccc2Cl)C1 (centres undefined) | 31
O=C(N1CCN(c2ccccn2)CC1)C1(Oc2ccc(C(F)(F)F)cc2)CCCN(S(=O)(=O)c2ccc(Cl)cc2)C1 (centres undefined) | 50
CC(C)S(=O)(=O)N1CCCC(Oc2ccc(C(F)(F)F)cc2)(C(=O)N2CCN(c3ccccn3)CC2)C1 (centres undefined) | 6.9

Second part, the molecule after the results:

IC50 [µM] | Structure (SMILES)
5.2 | O=C(c1cnccc1C(F)(F)F)N1CCCC(Oc2cccc(Cl)c2)(C(=O)N2CCN(c3ccccn3)CC2)C1 (centres undefined)
6.7 | O=C(c1cnccc1C(F)(F)F)N1CCCC(Oc2ccc(Cl)cc2)(C(=O)N2CCN(c3ccccn3)CC2)C1 (centres undefined)
6 | O=C(c1cnccc1C(F)(F)F)N1CCCC(Oc2ccc(F)cc2)(C(=O)N2CCN(c3ccccn3)CC2)C1 (centres undefined)
1.9 | O=C(c1cnccc1C(F)(F)F)N1CCCC(Oc2ccc(Br)cc2)(C(=O)N2CCN(c3ccccn3)CC2)C1 (centres undefined)
2.9 | O=C(c1cnccc1C(F)(F)F)N1CCCC(Oc2ccc(Br)c(F)c2)(C(=O)N2CCN(c3ccccn3)CC2)C1 (centres undefined)
1.4 | O=C(c1cnccc1C(F)(F)F)N1CCCC(Oc2ccc(Cl)c(F)c2)(C(=O)N2CCN(c3ccccn3)CC2)C1 (centres undefined)
41 | Cc1nc2cc(OC3(C(=O)N4CCN(c5ccccn5)CC4)CCCN(C(=O)c4cnccc4C(F)(F)F)C3)ccc2s1 (centres undefined)
48 | O=C(c1cnccc1C(F)(F)F)N1CCCC(Oc2ccc(-c3ccccc3)cc2)(C(=O)N2CCN(c3ccccn3)CC2)C1 (centres undefined)
33 | COc1ccc(OC2(C(=O)N3CCN(c4ccccn4)CC3)CCCN(C(=O)c3cnccc3C(F)(F)F)C2)cc1 (centres undefined)
1.5 | Cc1ccc(OC2(C(=O)N3CCN(c4ccccn4)CC3)CCCN(C(=O)c3cnccc3C(F)(F)F)C2)cc1 (centres undefined)
2.3 | O=C(c1cnccc1C(F)(F)F)N1CCCC(Oc2ccc(C(F)(F)F)cc2)(C(=O)N2CCN(c3ccccn3)CC2)C1 (centres undefined)
2.8 | O=C(c1cnccc1C(F)(F)F)N1CCCC(Oc2ccc(C(F)(F)F)cc2)(C(=O)N2CCN(c3ccccc3)CC2)C1 (centres undefined)
18 | O=C(c1cnccc1C(F)(F)F)N1CCCC(Oc2ccc(C(F)(F)F)cc2)(C(=O)N2CCN(c3ccncn3)CC2)C1 (centres undefined)
35 | O=C(c1cnccc1C(F)(F)F)N1CCCC(Oc2ccc(C(F)(F)F)cc2)(C(=O)N2CCN(c3ncccn3)CC2)C1 (centres undefined)
39 | O=C(c1cnccc1C(F)(F)F)N1CCCC(Oc2ccc(C(F)(F)F)cc2)(C(=O)N2CCN(Cc3ccccc3)CC2)C1 (centres undefined)
> 50 | COc1cccc(N2CCN(C(=O)C3(Oc4ccc(C(F)(F)F)cc4)CCCN(C(=O)c4cnccc4C(F)(F)F)C3)CC2)c1 (centres undefined)
0.97 | O=C(c1cnccc1C(F)(F)F)N1CCCC(Oc2ccc(C(F)(F)F)cc2)(C(=O)N2CCN(c3ccccc3O)CC2)C1 (centres undefined)
0.59 | CCOc1ccccc1N1CCN(C(=O)C2(Oc3ccc(C(F)(F)F)cc3)CCCN(C(=O)c3cnccc3C(F)(F)F)C2)CC1 (centres undefined)
0.38 | CC(=O)Nc1ccccc1N1CCN(C(=O)C2(Oc3ccc(C(F)(F)F)cc3)CCCN(C(=O)c3cnccc3C(F)(F)F)C2)CC1 (centres undefined)
6.5 | O=C(c1ccccc1C(F)(F)F)N1CCCC(Oc2ccc(C(F)(F)F)cc2)(C(=O)N2CCN(c3ccccn3)CC2)C1 (centres undefined)
21 | O=C(c1cnccc1C(F)(F)F)N1CCCC(Oc2ccccc2Cl)(C(=O)N2CCN(c3ccccn3)CC2)C1 (centres undefined)
